# Experimental data reported in patent publication US8138304B2, “Neural regeneration peptides and formulations thereof” (Neuren Pharmaceuticals Limited, priority 2005, dated 2012).
# Where no end group is shown, it is not given here.
# Key:
# [1] = tested on: human primary trophoblasts; experiment: Trophoblast haptotactic migration (Boyden chamber) assay; type: cell-based; settings: 0.1 ng/ml coating, 100 fM in inserts; 22 hrs
# Protocol: Human trophoblast cells were isolated from term placentas with prior approval by the Ethics Committee of the University of Auckland and consent of the patients. The maternal decidua was removed, exposing the villous interior of the placenta. Pieces of villous tissue were cut out and washed thoroughly with PBS before digestion using 0.25% trypsin. The digest was then diluted in Locke Ringers Buffer and DNAase I. Digestion of connective tissue surrounding the placental cells was carried out while stirring the mixture with a magnetic stirrer at a temperature of 37° C. The process was repeated 8 times, with the last 6 supernatants being collected in a bottle containing fetal bovine serum (FBS). The digestion step produced a heterogeneous dispersed cell preparation. The pooled supernates was centrifuged for 7 minutes at 1200 rpm. The cell pellet was resuspended in PBS and centrifuged. […]
# Cells were then purified using a percoll gradient (5, 20, 30, 35, 40, 50 and 60%). […] This band was collected, the cells washed in M199 medium centrifuged and finally counted and plated according to the methods of Keelan et al, 1998. […]
# Under control conditions, the bottom of the chamber is not pre-coated with a putative chemoattractive agent. […] Thus, the number of migratory cells can be quantified. […]
# cerebellar cells = experiment: Cerebellar microexplant proliferation assay (BrdU); type: cell-based, Wistar rat
# Protocol: Laminated cerebellar cortices of the two hemispheres were explanted from a P3, P4, P7 or P8 Wistar rat, cut into small pieces in GBSS with 0.65% D(+)glucose solution, and triturated by a 0.4 mm gauge needle and subsequently pressed through a 125 μm pore size sieve. The obtained microexplants were centrifuged (60×g) 2 times for a medium exchange into serum-free BSA-supplemented START V-medium (Biochrom). Finally, the microexplants were reconstituted in 500 μl STARTV-medium. For culturing, 38 μl of the cell suspension was incubated for 1 hour on a poly-D-lysine-coated cover slip in a 35 mm Petri dish under an atmosphere comprising 5% CO2 in air and 100% humidity at 34° C. Subsequently, the injuring toxins (as described below), NRPs and 1 ml of STARTV-medium were added, and the cultures were evaluated after 2-3 days of culture.
# Toxicological and drug administration experiments were designed such that 1/100 parts of toxin and neuroprotective drug were administered simultaneously to the freshly prepared cerebellar microexplants. Glutamate was prepared as a 50 mM stock solution in MilliQ water while 50 mM 3-nitropropionic acid was pH-adjusted (pH 6.8-7.2) in MilliQ water. The concentrations of the oxidative stress inducing toxin, 3-nitropropionic acid (3-NP), and the excitotoxin, glutamate, in the assay were 0.5 mM each. Lyophilized peptides were reconstituted in PBS or 100 μg/ml human transferrin as a 10 μM stock solution. Subsequently, serial dilutions were made. Cerebellar microexplants were cultivated for 48-72 hours at 34° C., 5% CO2 in air and 100% humidity before they were fixed by increasing amounts of paraformaldehyde (0.4%, 1.2%, 3% and 4%—each treatment 2-3 min).
# Using the toxins described above, cerebellar explants were exposed for 24 hours, at the beginning of culturing to dilutions of NRP (survival assay) or NRP and 0.1 μM BrdU (proliferation assay). Subsequently, 80% of the medium was changed without addition of new toxins and NRPs. […]
# For statistical analysis of proliferation BrdU-positive nuclei were counted. Statistical significance was measured by Student's t-test.
substance,measurement,setting,value
"REGRRAAPGRAGG-NH2 (listed as Homo sapiens) [SEQ ID NO: 1, 13-mer NRP analogue]",increase of migratory cells,[1],95%
same,proliferation rate compared to the uninjured vehicle,"cerebellar cells; 1 pM, BrdU",increased the proliferation rate in these cultures significantly
same,proliferation compared against injured cells without NRP,"cerebellar cells; p<0.01, SEQ ID NO: 1 at 1 pM, SEQ ID NO: 2 at 100 pM",highly proliferation-inducing
